Measurements as given in patent US20250114327A1, “COMPOSITION COMPRISING TETRACYCLIC COMPOUND” (CHUGAI SEIYAKU KABUSHIKI KAISHA, priority 2010, published 2025).
Structures can show the parent of a compound that is named as a salt.

Tests used:
[1] = Small scale dissolution test in FaSSIF (Test example 2); conditions: 37° C., paddle 50 rpm

Row | Dissolved concentration after 10 min [µg/mL] | Dissolved concentration after 240 min [µg/mL] | Structure (SMILES) | solubility of the Compound F6-20 hydrochloride salt crystal ([1]; 5 to 240 min, results in figures, stated in words) | initial solubility of the Compound F6-20 hydrochloride salt crystal ([1]; early phase, stated in words (FIG. 26)) | solubility of the Compound F6-20 mesylate salt crystal ([1]; 5 to 240 min, versus Comparative example 3, stated in words)
1 | 8.3 ± 1.5 | 3.8 ± 2.6 | CC1(C)c2cc(C3CCN(C4COC4)CC3)ccc2C(=O)c2c1[nH]c1cc(C#N)ccc21 [Comparative example 4, 6,6-Dimethyl-8-(1-oxetan-3-yl-piperidin-4-yl)-11-oxo-6,11-dihydro-5H-benzo[b]carbazole-3-carbonitrile] | – | – | –
2 | 4.4 ± 0.4 | 4.8 ± 0.3 | CC1(C)c2cc(N3CCN(C4COC4)CC3)c(Br)cc2C(=O)c2c1[nH]c1cc(C#N)ccc21 [Comparative example 5, 9-Bromo-6,6-dimethyl-8-(4-oxetan-3-yl-piperazin-1-yl)-11-oxo-6,11-dihydro-5H-benzo[b]carbazole-3-carbonitrile] | – | – | –
3 | 18.2 ± 0.1 | 3.7 ± 0.5 | CC1(C)c2cc(N3CCN(C4CC4)CC3)c(Br)cc2C(=O)c2c1[nH]c1cc(C#N)ccc21 [Comparative example 6, 9-Bromo-8-(4-cyclopropyl-piperazin-1-yl)-6,6-dimethyl-11-oxo-6,11-dihydro-5H-benzo[b]carbazole-3-carbonitrile] | – | – | –
4 | 0.4 ± 0.2 | 0.4 ± 0.4 | CCc1cc2c(cc1N1CCN(C3COC3)CC1)C(C)(C)c1[nH]c3cc(C#N)ccc3c1C2=O [Comparative example 7, 9-Ethyl-6,6-dimethyl-8-(4-oxetan-3-yl-piperazin-1-yl)-11-oxo-6,11-dihydro-5H-benzo[b]carbazole-3-carbonitrile] | – | – | –

The next lines start with the compound.

Row | Structure (SMILES) | Dissolved concentration after 10 min [µg/mL] | Dissolved concentration after 240 min [µg/mL] | solubility of the Compound F6-20 hydrochloride salt crystal ([1]; 5 to 240 min, results in figures, stated in words) | initial solubility of the Compound F6-20 hydrochloride salt crystal ([1]; early phase, stated in words (FIG. 26)) | solubility of the Compound F6-20 mesylate salt crystal ([1]; 5 to 240 min, versus Comparative example 3, stated in words)
5 | CCc1cc2c(cc1N1CCC(N3CCOCC3)CC1)C(C)(C)c1[nH]c3cc(C#N)ccc3c1C2=O [9-ethyl-6,6-dimethyl-8-(4-morpholin-4-yl-piperidin-1-yl)-11-oxo-6,11-dihydro-5H-benzo[b]carbazole-3-carbonitrile monohydrochloride salt] | – | – | improved by addition of SLS and poly(sodium 4-styrene sulfonate) | improved by addition of polyoxyethylene (105) polyoxypropylene (5) glycol | –
6 | CCc1cc2c(cc1N1CCC(N3CCOCC3)CC1)C(C)(C)c1[nH]c3cc(C#N)ccc3c1C2=O [Compound F6-20 mesylate salt, 9-Ethyl-6,6-dimethyl-8-(4-morpholin-4-yl-piperidin-1-yl)-11-oxo-6,11-dihydro-5H-benzo[b]carbazole-3-carbonitrile] | – | – | – | – | improved in accordance with the additive amount of sodium lauryl sulfate
